We go through 15 molecules from patent publication US20230143612A1 (Arbutus Biopharma Corporation, priority 2020, published 2023).

For the assay, the target named is PD-L1 His protein / PD-1 Fc protein (Homo sapiens, UniProt Q9NZQ7). The assay is described as follows: HTRF Assay (PD-1/PD-L1 interaction). Type of assay: binding. To be noted: PD-L1 His 6 nM, PD-1 Fc 6 nM. In a few lines: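 Compounds tested from 20 μM down to 0.001 μM (3-fold) against 6 nM PD-L1 His and 6 nM PD-1 Fc, 15 min room temperature incubation. Detection after 1 h at room temperature with Tb cryptate anti-6HIS and XL665 anti-human IgG reagents (mixture at 0.35 nM and 6.7 nM), HTRF signal.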
Sequence of PD-L1 His protein / PD-1 Fc protein (Q9NZQ7 19-238 limits assumed): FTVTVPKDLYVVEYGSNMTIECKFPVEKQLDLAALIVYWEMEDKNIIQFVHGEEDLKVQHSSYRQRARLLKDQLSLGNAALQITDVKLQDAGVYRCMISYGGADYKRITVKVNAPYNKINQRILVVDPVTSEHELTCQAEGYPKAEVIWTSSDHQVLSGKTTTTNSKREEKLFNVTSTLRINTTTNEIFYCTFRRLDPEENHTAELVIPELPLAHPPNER

Each structure is given as a SMILES string. pIC50: −log10 of the molar value.

`CNC(=O)CNCc1cnc2cc(-c3cccc(-c4cccc(-c5ccc(CNC[C@@H]6CCC(=O)N6)c(OC)n5)c4Cl)c3Cl)ccn2c1=O` [Example 202, (S)-2-(((8-(2,2′-Dichloro-3′-(6-methoxy-5-((((5-oxopyrrolidin-2-yl)methyl)amino)methyl)pyridin-2-yl)-[1,1′-biphenyl]-3-yl)-4-oxo-4H-pyrido[1,2-a]pyrimidin-3-yl)methyl)amino)-N-methylacetamide]: the negative-log IC50 (pIC50) – broadly, the negative decadic logarithm of the IC50, by convention in mol/L – was 10.00.

For `COc1c(CNC[C@@H]2CCC(=O)N2)cc(Cl)c2nc(-c3cccc(-c4cccc(-c5ccn6c(=O)c(CNC[C@@H]7CCC(=O)N7)cnc6c5)c4Cl)c3Cl)ccc12` [Example 203, 8-[2-chloro-3-[2-Chloro-3-[8-chloro-5-methoxy-6-[[[(2S)-5-oxopyrrolidin-2-yl]methylamino]methyl]-2-quinolyl]phenyl]phenyl]-3-[[[(2S)-5-oxopyrrolidin-2-yl]methylamino]methyl] pyrido[1,2-a]pyrimidin-4-one], the pIC50 is 6.82.

On to `COc1nc(-c2cccc(-c3cccc(-c4ccn5c(=O)c(CN[C@H]6C[C@](C)(O)C6)c(C)nc5c4)c3Cl)c2Cl)ccc1CNC[C@@H]1CCC(=O)N1` [Example 204, 8-(2,2′-Dichloro-3′-(6-methoxy-5-(((((S)-5-oxopyrrolidin-2-yl)methyl)amino)methyl)pyridin-2-yl)-[1,1′-biphenyl]-3-yl)-3-((((1r,3r)-3-hydroxy-3-methylcyclobutyl)amino)methyl)-2-methyl-4H-pyrido[1,2-a]pyrimidin-4-one], for which the pIC50 is 10.00.

Regarding `COc1nc(-c2cccc(-c3cccc(-c4ccn5c(=O)c(CN[C@H]6C[C@](C)(O)C6)c(C)nc5c4)c3Cl)c2Cl)ccc1CN[C@H]1C[C@](C)(O)C1` [Example 205, 8-(2,2′-Dichloro-3′-(5-((((1r,3r)-3-hydroxy-3-methylcyclobutyl)amino)methyl)-6-methoxypyridin-2-yl)-[1,1′-biphenyl]-3-yl)-3-((((1r,3r)-3-hydroxy-3-methylcyclobutyl)amino)methyl)-2-methyl-4H-pyrido[1,2-a]pyrimidin-4-one], the pIC50 was 9.05.

As to `COc1nc(-c2cccc(-c3cccc(-c4ccn5c(=O)c(CNCCN6CCNC6=O)cnc5c4)c3Cl)c2Cl)ccc1CNC[C@@H]1CCC(=O)N1` [Example 207, (S)-8-(2,2′-Dichloro-3′-(6-methoxy-5-((((5-oxopyrrolidin-2-yl)methyl)amino)methyl)pyridin-2-yl)-[1,1′-biphenyl]-3-yl)-3-(((2-(2-oxoimidazolidin-1-yl)ethyl)amino)methyl)-4H-pyrido[1,2-a]pyrimidin-4-one], the pIC50 is 9.52.

`COc1nc(-c2cccc(-c3cccc(-c4ccn5c(=O)c(CNC[C@@H]6CCC(=O)N6)cnc5c4)c3C(F)(F)F)c2Cl)ccc1CNC[C@@H]1CCC(=O)N1` [Example 208, 8-(2′-Chloro-3′-(6-methoxy-5-(((((S)-5-oxopyrrolidin-2-yl)methyl)amino)methyl)pyridin-2-yl)-2-(trifluoromethyl)-[1,1′-biphenyl]-3-yl)-3-(((((S)-5-oxopyrrolidin-2-yl)methyl)amino)methyl)-4H-pyrido[1,2-a]pyrimidin-4-one] gave a pIC50 of 7.42.

For the molecule `CNC(=O)C(C)(C)NCc1cnc2cc(-c3cccc(-c4cccc(-c5ccc(CNC[C@@H]6CCC(=O)N6)c(OC)n5)c4Cl)c3Cl)ccn2c1=O` [Example 209, (S)-2-(((8-(2,2′-Dichloro-3′-(6-methoxy-5-((((5-oxopyrrolidin-2-yl)methyl)amino)methyl)pyridin-2-yl)-[1,1′-biphenyl]-3-yl)-4-oxo-4H-pyrido[1,2-a]pyrimidin-3-yl)methyl)amino)-N,2-dimethylpropanamide], the negative logarithm of the IC50 (pIC50) was 10.00.

In turn, `CNC(=O)CCNCc1cnc2cc(-c3cccc(-c4cccc(-c5ccc(CNC[C@@H]6CCC(=O)N6)c(OC)n5)c4Cl)c3Cl)ccn2c1=O` [Example 210, (S)-3-(((8-(2,2′-dichloro-3′-(6-methoxy-5-((((5-oxopyrrolidin-2-yl)methyl)amino)methyl)pyridin-2-yl)-[1,1′-biphenyl]-3-yl)-4-oxo-4H-pyrido[1,2-a]pyrimidin-3-yl)methyl)amino)-N-methylpropanamide] had a pIC50 of 10.00.

Turning to `COc1nc(-c2cccc(-c3cccc(-c4cc(C)n5c(=O)c(CN[C@H]6C[C@](C)(O)C6)cnc5c4)c3Cl)c2Cl)ccc1CNC[C@@H]1CCC(=O)N1` [Example 211], the negative logarithm of the IC50 (pIC50) is 7.68.

In the case of `COc1nc(-c2cccc(-c3cccc(-c4ccc5nc(CNC[C@@H]6CCC(=O)N6)cc(=O)n5c4)c3Cl)c2Cl)ccc1CNC[C@@H]1CCC(=O)N1` [Example 212, 7-(2,2′-Dichloro-3′-(6-methoxy-5-(((((S)-5-oxopyrrolidin-2-yl)methyl)amino)methyl)pyridin-2-yl)-[1,1′-biphenyl]-3-yl)-2-(((((S)-5-oxopyrrolidin-2-yl)methyl)amino)methyl)-4H-pyrido[1,2-a]pyrimidin-4-one], the pIC50 was 10.00.

The molecule `COc1nc(-c2cccc(-c3cccc(-c4ccn5c(=O)c(CNCC[C@@H]6CCC(=O)N6)cnc5c4)c3Cl)c2Cl)ccc1CNC[C@@H]1CCC(=O)N1` [Example 214, 8-[2-chloro-3-[2-chloro-3-[6-methoxy-5-[[[(2S)-5-oxopyrrolidin-2-yl]methylamino]methyl]-2-pyridyl]phenyl]phenyl]-3-[[2-[(2S)-5-oxopyrrolidin-2-yl]ethylamino]methyl]pyrido[1,2-a]pyrimidin-4-one] had a pIC50 of 9.30.

Consider `COc1nc(-c2cccc(-c3cccc(-c4ccn5c(=O)c(CNCCc6c[nH]cn6)cnc5c4)c3Cl)c2Cl)ccc1CNC[C@@H]1CCC(=O)N1` [Example 215, 8-[2-chloro-3-[2-chloro-3-[6-methoxy-5-[[[(2S)-5-oxopyrrolidin-2-yl]methylamino]methyl]-2-pyridyl]phenyl]phenyl]-3-[[2-(1H-imidazol-4-yl)ethylamino]methyl]pyrido[1,2-a]pyrimidin-4-one], for which the pIC50 is 8.10.

Molecule `COc1nc(-c2cccc(-c3cccc(-c4ccn5c(=O)c(CNCCn6cnnc6)cnc5c4)c3Cl)c2Cl)ccc1CNC[C@@H]1CCC(=O)N1` [Example 216, 8-[2-Chloro-3-[2-chloro-3-[6-methoxy-5-[[[(2S)-5-oxopyrrolidin-2-yl]methylamino]methyl]-2-pyridyl]phenyl]phenyl]-3-[[2-(1,2,4-triazol-4-yl)ethylamino]methyl]pyrido[1,2-a]pyrimidin-4-one] showed a pIC50 of 10.00.

`COc1nc(-c2cccc(-c3cccc(-c4cnc5c(N)c(CO)sc5c4)c3Cl)c2Cl)ccc1CNC[C@@H]1CCC(=O)N1` [Example 217, (S)-5-((((6-(3′-(3-Amino-2-(hydroxymethyl)-thieno[3,2-b]-pyridin-6-yl)-2,2′-dichloro-[1,1′-biphenyl]-3-yl)-2-methoxypyridin-3-yl)methyl)amino)methyl)pyrrolidin-2-one] had a negative-log IC50 (pIC50) of 8.46.

As for `COc1nc(-c2cccc(-c3cccc(-c4ccc5c(n4)OCCNC5)c3Cl)c2Cl)ccc1CNC[C@@H]1CCC(=O)N1` [Example 218, (S)-5-((((6-(2,2′-Dichloro-3′-(2,3,4,5-tetrahydropyrido[3,2-f][1,4]oxazepin-8-yl)-[1,1′-biphenyl]-3-yl)-2-methoxypyridin-3-yl)methyl)amino)methyl)887yrrolidine-2-one], the negative-log IC50 (pIC50) was 9.22.
